# According to patent EP4741380A1, “ISOXAZOLINE COMPOUND AND USE” (priority 2024, dated 2025):
# Where two headings read alike, the source gives them in different places.
# Key:
# Diamondback moth = experiment: Killing efficacy test against agricultural pests: diamondback moth test (leaf dip); format: in vivo; conditions: Plutella xylostella, foliar, read-out: Corrected Mortality Rate (%)
# Protocol: (§1) Solution preparation: 2 mg of a test compound was weighed and dissolved in 200 µL of acetone, and the sample was diluted with an aqueous solution containing 0.1% Tween 80 to a required concentration to obtain a test solution. 1. Diamondback moth test: The test sample was prepared into solutions with final concentrations of 0.0156 mg/L, 0.125 mg/L, and 1 mg/L. Fresh and clean rapeseed leaves were cut into small pieces of 3 cm × 3 cm. The leaf pieces were immersed in the solutions with different concentrations for 10s, taken out, and air-dried naturally. The treated leaf pieces were placed into Petri dishes lined with moistened filter paper. 20 third-instar larvae of the diamondback moth were introduced into each Petri dish. The Petri dishes were placed in a constant-temperature room, and mortality rates were checked after 72 h. 2. Aphid test: The test sample was prepared into solutions with final concentrations of 2 mg/L, 10 mg/L, and 50 mg/L. Fresh cotton leaves of uniform size were immersed in the solutions with different concentrations for 10s, air-dried, and placed backside up on culture plates. 100 wingless adult aphids were introduced into each culture plate. The culture plates were sealed with paper strips and placed in a constant-temperature room. Mortality rates were checked after 72 h. 3. Mite test: The test sample was prepared into solutions with final concentrations of 0.02 mg/L, 0.2 mg/L, and 2 mg/L. Filter paper treated with the test solutions was placed in Petri dishes, and about 30 mites were placed at the center of each Petri dish. 0.05 g of mite feed was added to the center of each Petri dish after 30 min. The Petri dishes were placed in a constant-temperature room, and mortality rates were checked after 72 h. 4. Borer test: The test sample was prepared into solutions with final concentrations of 0.125 mg/L, 0.5 mg/L, and 2 mg/L. Fresh leaves were cut, immersed in the solutions with different concentrations for 10s, taken out, and air-dried. The treated leaves were placed in Petri dishes, and 30 borer larvae were introduced into each Petri dish. The Petri dishes were placed in a constant-temperature room, and mortality rates were checked after 72 h.
# [1] = In vivo pharmacokinetic evaluation in mice; design: species or system ICR mice; conditions: for AUC: read-out: AUC^1-24 h; for Vd: in vivo, read-out: Vss
# Protocol: 1. Drug preparation: 5% DMSO + 10% macrogol 15 hydroxystearate (BASF) + 85% saline (where drug solutions have a final concentration of 1.2 mg/mL for the IV group and 3 mg/mL for the PO group). 2. Experimental animals: Each group included three mice (ICR mice, SPF grade). 3. Administration method: The body weight was measured before administration, and the dose was calculated according to the body weight. The mice were administered through intravenous injection or oral gavage. 4. Blood collection: After administration, blood samples were collected in 0.083 h, 0.25 h, 0.5 h, 1 h, 2 h, 4 h, 6 h, 8 h, and 24 h. The blood samples were collected via the cheek. Each sample included about 0.05 mL of blood anticoagulated with EDTA-2K. The blood samples were placed on wet ice after collection. 5. Sample treatment: The blood samples were placed on ice after collection and centrifuged within 1 h to obtain plasma (centrifugation conditions: 6000 g, 3 min, 2-8°C). Plasma samples were stored in a -80°C refrigerator before analysis. 6. Data processing: Pharmacokinetic parameters were calculated using Phoenix WinNonlin 8.2.0 based on plasma concentration data at different time points.
# Aphid = experiment: Killing efficacy test against agricultural pests: aphid test (leaf dip); format: in vivo, aphids; conditions: after 72 h
# Protocol: as §1
# Mite = experiment: Killing efficacy test against agricultural pests: mite test (treated filter paper); format: in vivo, mites; conditions: after 72 h
# Protocol: as §1
# mites = experiment: Mite killing efficacy test with an in vitro model
# Protocol: Mite collection: Live mites were gently picked up from a cage box with cotton swabs or small tweezers, 17-26 live mites per group.
# Drug treatment and detection method: 100 µL of a drug solution with a different concentration (drug solution prepared by 3% DMSO solution + 97% water and having a target final concentration of 30 µM) was aspirated with a pipette and added to a 24-well plate for each group, ensuring full contact between the drug and the mites. The mites were separately incubated at normal temperature for 5 min, transferred from each plate to another dry 24-well plate with the top sealed, and air-dried for about 1 h. Mite actions were observed, and the number of dead mites/the total number of mites was recorded. Then, the 24-well plate containing the mites was cultured at room temperature and relatively high humidity. The number of dead mites/the total number of mites was counted separately after 1 h, 2 h, 4 h, 6 h, 8 h, 22 h, and 24 h (time points after drug addition), and mite mortality rates were calculated. The project ended 24 h after drug addition.
# At a corresponding time point, a mite mortality rate greater than or equal to 90% is denoted as "+++", a mite mortality rate less than 90% and greater than or equal to 50% is denoted as "++", and a mite mortality rate less than 50% is denoted as "+".
# Borer = experiment: Killing efficacy test against agricultural pests: borer test (leaf dip); format: in vivo; conditions: after 72 h
# Protocol: as §1
# [2] = ICR, mouse, IV (6 mg/kg), plasma
# [3] = ICR, mouse, IV (6 mg/kg), plasma, read-out: C0
# [4] = ICR, mouse, PO (30 mg/kg), plasma
# [5] = ICR, mouse, PO (30 mg/kg), plasma, read-out: Cmax
# [6] = ICR, mouse, PO (30 mg/kg), plasma, read-out: Tmax
# [7] = ICR, mouse, plasma, PO (30 mg/kg) vs IV (6 mg/kg)
# [8] = 4 h, read-out: Mite Mortality Rate 4 h
# [9] = 24 h, read-out: Mite Mortality Rate 24 h
# [10] = DiamondBack Moth, 0.0156 mg/L, after 72 h
# [11] = DiamondBack Moth, 0.125 mg/L, after 72 h
# [12] = DiamondBack Moth, 1 mg/L, after 72 h
# [13] = 30 µM drug solution, 4 h after drug addition, read-out: Mite Mortality Rate 4 h
# [14] = 30 µM drug solution, 24 h after drug addition, read-out: Mite Mortality Rate 24 h
SMILES,"clearance [1, 2]","half-life [1, 2]","AUC [1, 2]","C0 [1, 3]","half-life [1, 4]","AUC [1, 4]","Cmax [1, 5]","Tmax [1, 6]","Vd [1, 2]","bioavailability [1, 7]",Corrected Mortality Rate (%) (Aphid; 2 mg/L),Corrected Mortality Rate (%) (Aphid; 10 mg/L),Corrected Mortality Rate (%) (Aphid; 50 mg/L),Corrected Mortality Rate (%) (Mite; 0.02 mg/L),Corrected Mortality Rate (%) (Mite; 0.2 mg/L),Corrected Mortality Rate (%) (Mite; 2 mg/L),mortality at 30 µM (mites; [8]),Corrected Mortality Rate (%) (Borer; 0.125 mg/L),Corrected Mortality Rate (%) (Borer; 0.5 mg/L),Corrected Mortality Rate (%) (Borer; 2 mg/L),other results
"Cc1cc(C2=NO[C@@](c3cc(Cl)cc(Cl)c3)(C(F)(F)F)C2)ccc1C(=O)NCC(=O)NC1(C(F)(F)F)CC1 [Example 011, (S)-4-(5-(3,5-dichlorophenyl)-5-(trifluoromethyl)-4,5-dihydroisoxazol-3-yl)-2-methyl-N-(2-oxo-2-((1-(trifluoromethyl)cyclopropyl)amino)ethyl)benzamide]",1.18 mL/min/kg,20 h,48900 ng·h/mL,6800 ng/mL,27.8 h,231000 ng·h/mL,15900 ng/mL,2.67 h,1.96 L/kg,94.6%,60%,100%,100%,34%,86%,100%,> 90%,29%,93%,100%,mortality at 0.0156 µg/mL (Diamondback moth; 72 h): 0%; mortality at 0.125 µg/mL (Diamondback moth; 72 h): 100%; mortality at 1 µg/mL (Diamondback moth; 72 h): 100%; mortality at 30 µM (mites; [9]): > 90%
"Cc1cc(C2=NOC(c3cc(Cl)cc(Cl)c3)(C(F)(F)F)C2)ccc1C(=O)NCC(=O)NCC(F)(F)F (stereo not shown) [Fluralaner, fluralaner, reference compound]",–,–,–,–,–,–,–,–,–,–,–,–,–,–,–,–,–,–,–,–,"AUC^1-24 h ([1]; IV (6 mg/kg), plasma): 22972 ng·h/mL; C0 ([1]; IV (6 mg/kg), plasma): 7151 ng/mL; CL ([1]; IV (6 mg/kg), plasma): 3.49 mL/min/kg; T1/2 ([1]; IV (6 mg/kg), plasma): 11.9 h; Vss ([1]; IV (6 mg/kg), plasma): 2.87 L/kg; F (%) ([1]; PO (30 mg/kg) vs IV (6 mg/kg)): 81.42%; AUC^1-24 h ([1]; PO (30 mg/kg), plasma): 93520 ng·h/mL; Cmax ([1]; PO (30 mg/kg), plasma): 8000 ng/mL; T1/2 ([1]; PO (30 mg/kg), plasma): 15.2 h; Tmax ([1]; PO (30 mg/kg), plasma): 1.67 h; Mite Mortality Rate 4 h (mites; 30 µM drug solution, 4 h after drug addition): +++ (a mite mortality rate greater than or equal to 90% is denoted as ""+++""); Mite Mortality Rate 24 h (mites; 30 µM drug solution, 24 h after drug addition): +++ (a mite mortality rate greater than or equal to 90% is denoted as ""+++"")"
"Cc1cc(C2=NOC(c3cc(Cl)c(Cl)c(C(F)(F)F)c3)(C(F)(F)F)C2)ccc1C(=O)NCC(=O)NC1(C(F)(F)F)CC1 (stereo not shown) [Example 029, 4-(5-(3,4-dichloro-5-(trifluoromethyl)phenyl)-5-(trifluoromethyl)-4,5-dihydroisoxazol-3-yl)-2-m ethyl-N-(2-oxo-2-((1-(trifluoromethyl)cyclopropyl)amino)ethyl)benzamide]",–,–,–,–,–,–,–,–,–,–,5%,100%,100%,54%,70%,100%,–,0%,50%,100%,mortality at 0.0156 µg/mL (Diamondback moth; [10]): 0%; mortality at 0.125 µg/mL (Diamondback moth; [11]): 79%; mortality at 1 µg/mL (Diamondback moth; [12]): 100%; mortality at 30 µM (mites; [13]): > 90%; mortality at 30 µM (mites; [14]): > 90%
"Cc1cc(C2=NOC(c3cc(C(F)(F)F)cc(C(F)(F)F)c3)(C(F)(F)F)C2)ccc1C(=O)NCC(=O)NC1(C(F)(F)F)CC1 (stereo not shown) [Example 030, 4-(5-(3,5-bis(trifluoromethyl)phenyl)-5-(trifluoromethyl)-4,5-dihydroisoxazol-3-yl)-2-methyl-N-(2-oxo-2-((1-(trifluoromethyl)cyclopropyl)amino)ethyl)benzamide]",–,–,–,–,–,–,–,–,–,–,22%,86%,100%,34%,66%,96%,–,30%,100%,100%,mortality at 0.0156 µg/mL (Diamondback moth; [10]): 16%; mortality at 0.125 µg/mL (Diamondback moth; [11]): 63%; mortality at 1 µg/mL (Diamondback moth; [12]): 100%; mortality at 30 µM (mites; [13]): > 90%; mortality at 30 µM (mites; [14]): > 90%
"Cc1cc(C2=NOC(c3cc(Cl)cc(Cl)c3)(C(F)(F)F)C2)ccc1C(=O)NCC(=O)NC1CC1 (stereo not shown) [Example 39 (Comparative Example 1), N-(2-(cyclopropylamino)-2-oxoethyl)-4-(5-(3,5-dichlorophenyl)-5-(trifluoromethyl)-4,5-dihydroisoxazol-3-yl)-2-methylbenzamide, reference compound]",2.06 mL/min/kg,12.3 h,37100 ng·h/mL,7800 ng/mL,11.8 h,173000 ng·h/mL,12300 ng/mL,3.33 h,1.97 L/kg,93.1%,–,–,–,–,–,–,> 90%,–,–,–,mortality at 30 µM (mites; [9]): > 90%
